# Assays:
# [1] = Example 2 case study: child with ADHD on methylphenidate, then Periactin (height, weight, percentiles, attentiveness); type: in vivo, human
# From the text: Case study: A child was presented by their parents for symptoms of attention deficit hyperactivity disorder. Their size at evaluation was 4′1¾″ and 50 lbs, corresponding to the 81st and 50th percentiles when compared to girls their age. […] At three months following the initiation of treatment for ADHD, the child was 4′2⅞″ and 50½ lbs, corresponding to the 85th and 34rd percentiles when compared to girls their age. At one year, they were 4′4⅜″ and 53 lbs, corresponding to the 84th and 36th percentiles when compared to girls their age. At two years they were 4′5¾″ and 54 lbs, corresponding to the 72nd and 17th percentiles when compared to girls their age. At four years of treatment they were 4′7⅜″ and 59 lbs, corresponding to 70th and 14th percentiles when compared to girls their age. At five years of treatment they were 4′9⅞″ and 64½ lbs, corresponding to 59th and 7th percentiles when compared to girls their age.
# The child was then prescribed Periactin at a dosage of 2 mg b.i.d. to attempt to stimulate appetite. The dose was taken in the morning and then in the afternoon. After one year they were 4′11½″ and 72½ lbs, corresponding to 33rd and 5th percentiles when compared to girls their age. The child was then prescribed Periactin at a dose of 4 mg b.i.d. After two months on this dose, they were 5′¼″ and 76 lbs, corresponding to 37th and 8th percentiles when compared to girls their age. At 8 months on this dose, they were 5′½″ and 80 lbs, corresponding to 41st and 8th percentiles when compared to girls their age. At one year on this dose, they were 5′2¾″ and 89½ lbs, corresponding to 51st and 17th percentiles when compared to girls their age. At 18 months on this dose, they were 5′3⅝″ and 99½ lbs, corresponding to 56th and 30th percentiles when compared to girls their age. Additionally, the attentiveness of the child increase following the prescription of Periactin as they increased their food intake during the day.
# [2] = cited from earlier work
# [3] = tested on: patient suffering from ADHD; experiment: Example 1: patient suffering from ADHD treated with and without an appetite stimulant (appetite, blood glucose, attentiveness by CGI-S and CGI-I); type: in vivo, human
# From the text: A patient suffering from ADHD is prescribed and administered an amphetamine to treat ADHD. The patient takes the amphetamine once a day in the morning or afternoon. […] As a result, the glucose level measured in the blood increases as shown in FIG. 1 and the patient's attentiveness recovers as measured by CGI-S and CGI-I. By taking the appetite stimulant during the time when the patient was awake, the patient increased their caloric intake during times when the patient needed to maintain their attentiveness in order to have reasonable cognition and/or social behaviour.
# [4] = tested on: patients suffering from ADHD; experiment: Clinical Global Impression-Severity scale (CGI-S), Patients A-H; type: in vivo, human
# Procedure: In an embodiment, attentiveness is measured using the Clinical Global Impression rating scales to measure symptom severity, treatment response and the efficacy of treatments in treatment studies of patients with mental disorders (Guy, W., 1976). In an embodiment, attentiveness is measure using the Clinical Global Impression-Severity scale (“CGI-S”). In an embodiment, CGI-S is a 7-point scale that requires the clinician to rate the severity of the patient's illness at the time of assessment, relative to the clinician's past experience with patients who have the same diagnosis. Considering total clinical experience, a patient is assessed on severity of mental illness at the time of rating 1, normal, not at all ill; 2, borderline mentally ill; 3, mildly ill; 4, moderately ill; 5, markedly ill; 6, severely ill; or 7, extremely ill. In an embodiment, attentiveness is measured using the Clinical Global Impression-Improvement scale (“CGI-I”). […] In an embodiment, attentiveness is measured using the Clinical Global Impression-Efficacy Index (“CGI-E”).
# The age range of the patients was from 6-15 years of age, with a mean age at the start of treatment for ADHD of 8.4 years of age. The mean age at the start of the combination treatment wherein the patient was administered an amphetamine or methylphenidate and an appetite stimulant was 10.3 years of age. The mean treatment period for the eight patients was 1,108 days with a mean of 2.55 ADHD medication changes during the treatment period. Attentiveness in the eight patients was measured using CGI-S and CGI-I. Patients weight and height velocity were measured to identify a difference in weight and height gain prior to and after addition of an appetite stimulant to the treatment for ADHD. Weight velocity was calculated by taking three time points, time 0 upon initiation of medication to treat ADHD, time 1 addition of an appetite stimulant, time 2 the last data point after initiation of combination treatment. The formula to calculate weight velocity for stimulant alone is (weightT1−weight T0)/days from Time 0 to time 1. The formula to calculate weight velocity for combination treatment is (weightT2−weight T1)/days from time 1 to time 2.
# [5] = Periactin 2 mg b.i.d., after one year
# [6] = Periactin 4 mg b.i.d., 8 months
# [7] = Periactin 4 mg b.i.d., 18 months
# [8] = Periactin 4 mg b.i.d., one year
# [9] = Periactin 4 mg b.i.d., two months
compound,measurement,setting,value
"CN1CCC(=C2c3ccccc3C=Cc3ccccc32)CC1.Cl [Periactin, 4-(5H-dibenzo[a,d]cyclohepten-5-ylidene)-1-methylpiperidine hydrochloride]",height percentile compared to girls their age,[1]; [5],33 percentile
same,weight percentile compared to girls their age,[1]; [5],5 percentile
same,height percentile compared to girls their age,[1]; [6],41 percentile
same,weight,[1]; [6],80 lbs
same,weight percentile compared to girls their age,[1]; [6],8 percentile
same,height percentile compared to girls their age,[1]; [7],56 percentile
same,weight percentile compared to girls their age,[1]; [7],30 percentile
same,height percentile compared to girls their age,[1]; [8],51 percentile
same,weight percentile compared to girls their age,[1]; [8],17 percentile
same,height percentile compared to girls their age,[1]; [9],37 percentile
same,weight,[1]; [9],76 lbs
same,weight percentile compared to girls their age,[1]; [9],8 percentile
same,attentiveness,[1]; following the prescription of Periactin,increase
same,effect in children suffering from ADHD (anecdotal evidence),[2]; ADHD drug (amphetamine or methylphenidate) plus 4-8 mg cyproheptadine at night (Daviss 2004),weight gain and excessive sleep
same,effect on weight in studies,[2]; non-human animals or humans (Orthen-Gambill 1988),weight gain
same,side effects,[2]; oral monotherapy for allergy,weight gain and drowsiness
same,attentiveness as measured by CGI-S and CGI-I,[3]; amphetamine and Cyproheptadine once a day,recovers
same,appetite,[3]; amphetamine and Cyproheptadine once a day in the morning or afternoon,resumes
same,glucose level measured in the blood,"[3]; amphetamine and Cyproheptadine once a day, FIG. 1",increases
same,CGI-S score,"[4]; Patient A, Periactin 4 mg b.i.d. added to Concerta, FIG. 5",3
same,CGI-S score,"[4]; Patient B, Focalin XR 15 mg and Periactin 4 mg b.i.d. (remained), FIG. 7",3
same,CGI-S score,"[4]; Patient B, Focalin XR raised to 30 mg at day 1279 with Periactin, FIG. 7",2
same,CGI-S score,"[4]; Patient C, Concerta 36 mg and Periactin 4 mg b.i.d., FIG. 9",4
same,CGI-S score,"[4]; Patient D, Concerta 18 mg and Periactin 2 mg in the morning, FIG. 11",5
same,CGI-S score,"[4]; Patient D, Concerta increased to 27 mg with Periactin, FIG. 11",4
same,CGI-S score,"[4]; Patient E, Focalin XR 20 mg and Periactin 4 mg in the morning",4
same,CGI-S score,"[4]; Patient E, Periactin dosed b.i.d. with Focalin XR",3
same,CGI-S score,"[4]; Patient G, Focalin XR 15 mg and Periactin 4 mg b.i.d., FIG. 17",3
same,CGI-S score versus prior examination,"[4]; Patient H, Vvyanase 40 mg and Periactin 2 mg b.i.d., day 200, FIG. 19",had not changed
same,lowering of the CGI-S of a patient by addition of the appetite stimulant,"[4]; Patients A-H, versus same patient prior to appetite stimulant, FIG. 20, 21",≥ 1

# From patent publication US10682409B2, “Therapeutic treatment” (priority 2012, dated 2020)
